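Tested at 5 concentrations; 48 h exposure; 96-well plates; endpoints linearly interpolated, else capped at highest concentration. Abbreviation: GI50, concentration required for 50% inhibition of growth. TGI denotes the concentration required for complete inhibition of growth.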
Tests used:
Experiment in all cases: inhibition of tumour cell growth, NCI panel, 48 h
COLO 205 colon = system: COLO 205 colon
SK-MEL-5 melanoma = system: SK-MEL-5 melanoma
KM12 colon = system: KM12 colon
NCI-H522 lung = system: NCI-H522 lung
HL-60(TB) leukemia = system: HL-60(TB) leukemia
CCRF-CEM leukemia = system: CCRF-CEM leukemia
SK-MEL-28 melanoma = system: SK-MEL-28 melanoma
OVCAR-8 ovarian = system: OVCAR-8 ovarian
TK-10 renal = system: TK-10 renal
KM20L2 colon = system: KM20L2 colon
SR leukemia = system: SR leukemia
A549 NSCLC = system: A549 NSCLC
RPMI-8226 leukemia = system: RPMI-8226 leukemia
NCI-H460 lung = system: NCI-H460 lung
LXFL 529 NSCLC = system: LXFL 529 NSCLC
XF 498 CNS = system: XF 498 CNS
DLD-1 colon = system: DLD-1 colon
NCI-H23 lung = system: NCI-H23 lung
DMS 114 small cell lung = system: DMS 114 small cell lung
SW-620 colon = system: SW-620 colon
UACC-62 melanoma = system: UACC-62 melanoma
K-562 leukemia = system: K-562 leukemia
SK-OV-3 ovarian = system: SK-OV-3 ovarian
DMS 273 small cell lung = system: DMS 273 small cell lung
HOP-62 NSCLC = system: HOP-62 NSCLC
CAKI-1 renal = system: CAKI-1 renal
M19-MEL melanoma = system: M19-MEL melanoma
SNB-19 CNS = system: SNB-19 CNS
A498 renal = system: A498 renal
M14 melanoma = system: M14 melanoma
SF-295 CNS = system: SF-295 CNS
U251 CNS = system: U251 CNS
OVCAR-3 ovarian = system: OVCAR-3 ovarian
SF-539 CNS = system: SF-539 CNS
HOP-92 NSCLC = system: HOP-92 NSCLC
OVCAR-5 ovarian = system: OVCAR-5 ovarian
SN12C renal = system: SN12C renal
UO-31 renal = system: UO-31 renal
IGROV1 ovarian = system: IGROV1 ovarian
SK-MEL-2 melanoma = system: SK-MEL-2 melanoma
MALME-3M melanoma = system: MALME-3M melanoma
ACHN renal = system: ACHN renal
EKVX NSCLC = system: EKVX NSCLC
HCT-116 colon = system: HCT-116 colon
HCC-2998 colon = system: HCC-2998 colon
SNB-78 CNS = system: SNB-78 CNS
HT29 colon = system: HT29 colon
SF-268 CNS = system: SF-268 CNS
HCT-15 colon = system: HCT-15 colon
OVCAR-4 ovarian = system: OVCAR-4 ovarian
UACC-257 melanoma = system: UACC-257 melanoma
MOLT-4 leukemia = system: MOLT-4 leukemia
RXF 393 renal = system: RXF 393 renal
HOP-18 NSCLC = system: HOP-18 NSCLC
786-0 renal = system: 786-0 renal
LOX IMVI melanoma = system: LOX IMVI melanoma
NCI-H226 lung = system: NCI-H226 lung
SNB-75 CNS = system: SNB-75 CNS

With `CC(=O)c1c(P(=O)(OC(C)C)OC(C)C)nn(-c2ccc([N+](=O)[O-])cc2)c1C` the TGI (COLO 205 colon) was over 100 µM, the TGI (SK-MEL-5 melanoma) was over 100 µM and the TGI (KM12 colon) was over 100 µM. The TGI (NCI-H522 lung) was over 100 µM, the TGI (HL-60(TB) leukemia) was over 100 µM and the TGI (CCRF-CEM leukemia) was over 100 µM. For the same compound, the TGI (SK-MEL-28 melanoma) was over 100 µM, the TGI (OVCAR-8 ovarian) was over 100 µM and the TGI (TK-10 renal) was over 100 µM. It also gave a TGI (KM20L2 colon) of over 100 µM, a TGI (SR leukemia) of over 100 µM and a TGI (A549 NSCLC) of over 100 µM. For the same compound, the TGI (RPMI-8226 leukemia) was over 100 µM, the TGI (NCI-H460 lung) was over 100 µM and the TGI (LXFL 529 NSCLC) was over 100 µM. For the same compound, the TGI (XF 498 CNS) was over 100 µM, the TGI (DLD-1 colon) was over 100 µM and the TGI (NCI-H23 lung) was over 100 µM. It also gave a TGI (DMS 114 small cell lung) of over 100 µM, a TGI (SW-620 colon) of over 100 µM and a TGI (UACC-62 melanoma) of over 100 µM. It also gave a TGI (K-562 leukemia) of over 100 µM, a TGI (SK-OV-3 ovarian) of over 100 µM and a TGI (DMS 273 small cell lung) of over 100 µM. It also gave a TGI (HOP-62 NSCLC) of over 100 µM, a TGI (CAKI-1 renal) of over 100 µM and a TGI (M19-MEL melanoma) of over 100 µM. The TGI (SNB-19 CNS) was over 100 µM, the TGI (A498 renal) was over 100 µM and the TGI (M14 melanoma) was over 100 µM. For the same compound, the TGI (SF-295 CNS) was over 100 µM, the TGI (U251 CNS) was over 100 µM and the TGI (OVCAR-3 ovarian) was over 100 µM. For the same compound, the TGI (SF-539 CNS) was over 100 µM, the TGI (HOP-92 NSCLC) was over 100 µM and the TGI (OVCAR-5 ovarian) was over 100 µM. It also gave a TGI (SN12C renal) of over 100 µM, a TGI (UO-31 renal) of over 100 µM and a TGI (IGROV1 ovarian) of over 100 µM. For the same compound, the TGI (SK-MEL-2 melanoma) was over 100 µM, the TGI (MALME-3M melanoma) was over 100 µM and the TGI (ACHN renal) was over 100 µM. For the same compound, the TGI (EKVX NSCLC) was over 100 µM, the TGI (HCT-116 colon) was over 100 µM and the TGI (HCC-2998 colon) was over 100 µM. For the same compound, the TGI (SNB-78 CNS) was over 100 µM, the TGI (HT29 colon) was over 100 µM and the TGI (SF-268 CNS) was over 100 µM. It also gave a TGI (HCT-15 colon) of over 100 µM, a TGI (OVCAR-4 ovarian) of over 100 µM and a TGI (UACC-257 melanoma) of over 100 µM. The TGI (MOLT-4 leukemia) was over 100 µM.
For `CC(=O)[CH-]C(C)=O.CC(=O)[CH-]C(C)=O.[CH2-]CCCCCCC.[CH2-]CCCCCCC.[Sn+4]`, the GI50 (COLO 205 colon) was 14.7 µM, the TGI (COLO 205 colon) was 28.8 µM and the GI50 (SK-MEL-5 melanoma) was 17.7 µM. The TGI (SK-MEL-5 melanoma) was 32 µM, the GI50 (KM12 colon) was 16.7 µM and the TGI (KM12 colon) was 34.4 µM. The GI50 (NCI-H522 lung) was 20.3 µM, the TGI (NCI-H522 lung) was 46.2 µM and the GI50 (RXF 393 renal) was 14.6 µM. It also gave a TGI (RXF 393 renal) of 32.9 µM, a GI50 (HL-60(TB) leukemia) of 21.1 µM and a TGI (HL-60(TB) leukemia) of 81.6 µM. The GI50 (CCRF-CEM leukemia) was 27 µM, the TGI (CCRF-CEM leukemia) was 69 µM and the GI50 (SK-MEL-28 melanoma) was 14.7 µM. It also gave a TGI (SK-MEL-28 melanoma) of 28.4 µM, a GI50 (OVCAR-8 ovarian) of 16.8 µM and a TGI (OVCAR-8 ovarian) of 32.1 µM. For the same compound, the GI50 (TK-10 renal) was 23.7 µM, the TGI (TK-10 renal) was 45.2 µM and the GI50 (KM20L2 colon) was 25 µM. The TGI (KM20L2 colon) was 57.6 µM, the GI50 (SR leukemia) was 39.9 µM and the TGI (SR leukemia) was 62.4 µM. The GI50 (HOP-18 NSCLC) was over 100 µM, the TGI (HOP-18 NSCLC) was over 100 µM and the GI50 (A549 NSCLC) was 45.6 µM. For the same compound, the TGI (A549 NSCLC) was over 100 µM, the GI50 (786-0 renal) was 15.8 µM and the TGI (786-0 renal) was 30.1 µM. The GI50 (RPMI-8226 leukemia) was 18.5 µM, the TGI (RPMI-8226 leukemia) was 40.4 µM and the GI50 (NCI-H460 lung) was 17.3 µM. For the same compound, the TGI (NCI-H460 lung) was 37.8 µM, the GI50 (LXFL 529 NSCLC) was 16.2 µM and the TGI (LXFL 529 NSCLC) was 30.1 µM. It also gave a GI50 (XF 498 CNS) of 11.8 µM, a TGI (XF 498 CNS) of 24.1 µM and a GI50 (DLD-1 colon) of 18.8 µM. It also gave a TGI (DLD-1 colon) of 45.2 µM, a GI50 (LOX IMVI melanoma) of 13.8 µM and a TGI (LOX IMVI melanoma) of 27 µM. For the same compound, the GI50 (NCI-H23 lung) was 18.7 µM, the TGI (NCI-H23 lung) was 33.6 µM and the GI50 (DMS 114 small cell lung) was 16.7 µM. It also gave a TGI (DMS 114 small cell lung) of 31.2 µM, a GI50 (SW-620 colon) of 16.4 µM and a TGI (SW-620 colon) of 31.7 µM. It also gave a GI50 (UACC-62 melanoma) of 15.6 µM, a TGI (UACC-62 melanoma) of 29.4 µM and a GI50 (K-562 leukemia) of 20.5 µM. The TGI (K-562 leukemia) was 93.5 µM, the GI50 (SK-OV-3 ovarian) was 25.5 µM and the TGI (SK-OV-3 ovarian) was 67.1 µM. The GI50 (HOP-62 NSCLC) was 22.4 µM, the TGI (HOP-62 NSCLC) was 40.9 µM and the GI50 (CAKI-1 renal) was 36.7 µM. It also gave a TGI (CAKI-1 renal) of over 100 µM, a GI50 (SNB-19 CNS) of 17.5 µM and a TGI (SNB-19 CNS) of 35.8 µM. The GI50 (A498 renal) was 23 µM, the TGI (A498 renal) was 46.7 µM and the GI50 (NCI-H226 lung) was 26.2 µM. The TGI (NCI-H226 lung) was 52.3 µM, the GI50 (M14 melanoma) was 18.5 µM and the TGI (M14 melanoma) was 35.5 µM. For the same compound, the GI50 (SF-295 CNS) was 15.4 µM, the TGI (SF-295 CNS) was 30.6 µM and the GI50 (SNB-75 CNS) was 14.7 µM. For the same compound, the TGI (SNB-75 CNS) was 78.6 µM, the GI50 (U251 CNS) was 15 µM and the TGI (U251 CNS) was 28.3 µM. For the same compound, the GI50 (OVCAR-3 ovarian) was 15.9 µM, the TGI (OVCAR-3 ovarian) was 33.8 µM and the GI50 (SF-539 CNS) was 22.2 µM. It also gave a TGI (SF-539 CNS) of 58.6 µM, a GI50 (HOP-92 NSCLC) of 18.1 µM and a TGI (HOP-92 NSCLC) of 40.7 µM. It also gave a GI50 (OVCAR-5 ovarian) of 15.5 µM, a TGI (OVCAR-5 ovarian) of 37.7 µM and a GI50 (SN12C renal) of 22.7 µM. It also gave a TGI (SN12C renal) of 59.1 µM, a GI50 (UO-31 renal) of 17.2 µM and a TGI (UO-31 renal) of 34.8 µM. It also gave a GI50 (IGROV1 ovarian) of 20.3 µM, a TGI (IGROV1 ovarian) of 49.2 µM and a GI50 (SK-MEL-2 melanoma) of 14.8 µM. It also gave a TGI (SK-MEL-2 melanoma) of 32 µM, a GI50 (MALME-3M melanoma) of 17.6 µM and a TGI (MALME-3M melanoma) of 39.5 µM. The GI50 (ACHN renal) was 28.3 µM, the TGI (ACHN renal) was 70.4 µM and the GI50 (EKVX NSCLC) was 14.7 µM. It also gave a TGI (EKVX NSCLC) of 35.4 µM, a GI50 (HCT-116 colon) of 14.8 µM and a TGI (HCT-116 colon) of 29.1 µM. It also gave a GI50 (HCC-2998 colon) of 17 µM, a TGI (HCC-2998 colon) of 31.5 µM and a GI50 (HT29 colon) of 23.5 µM. The TGI (HT29 colon) was 59.6 µM, the GI50 (SF-268 CNS) was 18.9 µM and the TGI (SF-268 CNS) was 57.9 µM. The GI50 (HCT-15 colon) was 23.2 µM, the TGI (HCT-15 colon) was 56.2 µM and the GI50 (OVCAR-4 ovarian) was 22.3 µM. For the same compound, the TGI (OVCAR-4 ovarian) was 78.6 µM, the GI50 (UACC-257 melanoma) was 17.8 µM and the TGI (UACC-257 melanoma) was 34.9 µM. It also gave a GI50 (MOLT-4 leukemia) of 37.2 µM and a TGI (MOLT-4 leukemia) of 73 µM.

Reference: PubChem BioAssay (NCI)
